# Measured values: patent publication US10111847B2, “Compounds and methods for modulating vascular injury” (The Regents of the University of California, priority 2012, dated 2018)
# What was measured:
# Type in all cases: cell-based, human
# VSMC [1] = assay: MTT cell viability assay; conditions: 1-100 nM for 8 hours
# Protocol: Cells are plated onto 24-well plates and treated with or without RvD1 or RvD2 (1, 10, and 100 nM) for 8 hours. MTT viability assay is performed per manufacturer's instructions (TOX1 assay, Sigma).
# FIG. 8: Cell viability is not affected by RvD1 or RvD2. Cells were treated with or without RvD1 or RvD2 (1, 10, and 100 nM) for 8 hours.
# VSMC [2] = assay: Transwell migration of VSMC to PDGF-AB; conditions: 100 nM; chemotaxis to PDGF-AB 50 ng/mL, 8 hours; P<0.01
# Text: Primary cultures of human greater saphenous vein smooth muscle cells (hVSMC) are isolated from saphenous vein discarded at the time of bypass operation in an Institutional Review Board-approved protocol as described by Conte et al. “Regulation of vein graft hyperplasia by survivin, an inhibitor of apoptosis protein.” Arterioscler Thromb Vasc Biol. 2005; 25:2081-2087. VSMCs are maintained in Dulbecco's modified Eagle's medium (DMEM Low Glucose) (HyClone Laboratories Inc, Logan, Utah) containing 10% fetal bovine serum (FBS) (Invitrogen Life Technologies, Grand Island, N.Y.) and used between passages 2-5. Endothelial cells were maintained in Medium 199 supplemented with EBSS (Hyclone Laboratories, Logan, Utah, USA) and Endothelial Cell Growth Supplement. Cells between passages 3-8 were used for the experiments.
# RvD. […]
# FIG. 1: RvD1 and RvD2 attenuate cell adhesion, proliferation, and migration responses of human VSMC in-vitro. […] Results are shown as relative percent inhibition, expressed as a percentage of the maximal adhesion for the agonist (n=6, results are mean±SEM, **P<0.01, *P<0.05, unpaired t-test). […] Results are expressed as percentage change in migration from unstimulated control (no PDGF). […]
# [3] = system: TNF-α, IL-1β, MCP-1, IL-6, and IL-1α; assay: TNF-α-stimulated inflammatory cytokine gene expression in VSMC by qRT-PCR; conditions: 0.1 nM or 10 nM, greatest attenuation in IL-1β
# Protocol: Cells are plated onto 6-well plates at 100% confluency in DMEM plus 10% FBS and allowed to attached overnight. Cells are then made quiescent by placing in serum-free media for 48-72 hours prior to start of experiments. Cells are treated with or without RvD1 or RvD2 at the indicated concentrations for one hour followed by co-incubation with cytokine (TNF-α 10 ng/ml) for up to 18 hours. In a separate set of experiments to examine the role of G-protein receptors, VSMCs are exposed to TNF-α and RvD2 (10 nM) as described above, in the presence or absence of pertussis toxin (PTX 100 ng/ml). Total RNA from rabbit sample or cells is isolated with PureLink RNA Mini kit (Ambion Life Technologies, Carlsbad, Calif.) with RNase-free DNase treatment according to manufacturer's protocol. One microgram of total RNA (from either VSMC or rabbit tissue) is used to generate cDNA using High Capacity cDNA Reverse Transcription Kit (Applied Biosystems, Foster City, Calif.) for subsequent RT-PCR reactions. Sybrgreen Amplified DNA is detected by incorporation SYBR Green (Qiagen, Germantown, Md.). Dissociation curve analyses are performed to confirm the specificity of the SYBR Green signal. Data is normalized to at least two reference genes. […]
# FIG. 2: RvD1 and RvD2 reduce pro-inflammatory gene expression in VSMC. […] Expression of the cell adhesion molecules VCAM-1 (A) and ICAM-1 (B) was measured by qRT-PCR. […]
SMILES,loss of cell viability (MTT cytotoxicity assay) (VSMC [1]),Maximum % reduction in the cell migration assay (VSMC [2]) [%],"expression of multiple inflammatory cytokines including TNF-α, IL-1β, MCP-1, IL-6, and IL-1α [3]"
"CC/C=C\C[C@H](O)/C=C/C=C\C=C\C=C\[C@@H](O)[C@@H](O)C/C=C\CCC(=O)O [RvD1, Resolvin D1]",did not display significant loss of cell viability,63,"broad, significant reduction"
"CC/C=C\C[C@H](O)[C@H](O)/C=C/C=C/C=C\C=C\[C@@H](O)C/C=C\CCC(=O)O [RvD2, resolvin D2]",did not display significant loss of cell viability,69,"broad, significant reduction"
